Patent US8589175B2, “Optimization and individualization of medication selection and dosing” (Children's Hospital Medical Center, priority 2005, dated 2013)
Where two headings read alike, the source gives them in different places.

Tests used:
[1] = tested on: CYP2D6
[2] = tested on: CYP2C19; assay: dosing recommendation per CYP2C19 metabolizer subgroup as percentage of usual population dose (Equations 4-6)
Text: Assuming the goal is to maintain the same AUC for all three subpopulations of patients, the following subpopulation dosing relationships hold: DPM=DEM*(AUCEM/AUCPM) OR DPM=DEM*R if R=(AUCEM/AUCPM) (Equation 2) DIM=DEM*(AUCEM/AUCIM) OR DIM=DEM*S if S=(AUCEM/AUCIM) (Equation 3)
By substituting equations 2 and 3 into equation 1, and then rearranging the equation to solve for the percent dose adjustment needed for each subgroup relative to the population dose: DEM(%)=100/(fEM+fIM*S+fPM*R) (Equation 4) DPM(%)=R*DEM (Equation 5) DIM(%)=S*DEM (Equation 6) Equations 4, 5, and 6 show how the dosing for the more homogeneous subgroups is determined and how the dosing results are expressed as a fraction of the clinician's usual heterogeneous whole group dosages. Determining “Minimal Dose Adjustment Units”
Example: The approach in the previous section leads to individualized initial drug dose recommendations for each of the 3 subgroups (extensive, poor and intermediate metabolizers). Each subgroup represents a specific number of functional alleles for the specific DME (extensive metabolizers have 2 functional, intermediate metabolizers have 1 functional and poor metabolizers have 0 functional). The resultant dosing recommendations are expressed as percentages of the clinician's usual starting dose. It is possible to investigate the effect of increasing numbers of non-functional alleles using these new dosing recommendations. For example, if DRX % is the dosing recommendation for subgroup X expressed as a percentage of the clinician's usual starting dose then the following are true: Effect of […] 1 non-functional allele=(DREM %−DRIM %)/DREM % Effect of 2 non-functional allele=(DREM %−DRPM %)/DREM % Below is a spreadsheet (Table 3) that examines this for CYP2D6, CYP2C19 and CYP2C9. […] 2C9 has 2 MDA units per non-functional allele.

[3] = CYP2D6, ratio of the two effects
[4] = CYP2D6 extensive metabolizers, percent of usual dose
[5] = CYP2D6 intermediate metabolizers, percent of usual dose
[6] = CYP2D6 poor metabolizers, percent of usual dose
[7] = CYP2D6 ultrarapid metabolizers, percent of usual dose

Row | SMILES | 1 al (effect of 1 non-functional allele) ([1]; human) | 2 al (effect of 2 non-functional alleles) ([1]; human) | 2 al/1 al ([1]; human) | EM (%) dosing recommendation ([1]; human) [%] | IM (%) dosing recommendation ([1]; human) [%] | PM (%) dosing recommendation ([1]; human) [%] | UM (%) dosing recommendation ([1]; human) [%] | further results
1 | Cl.Cl.OCCN1CCN(CCC=C2c3ccccc3Sc3ccc(C(F)(F)F)cc32)CC1 (mixture of isomers) [flupentixol] |  |  |  |  |  |  |  | 1 al (effect of 1 non-functional allele) [1]: 0.26; 2 al (effect of 2 non-functional alleles) [1]: 0.36; 2 al/1 al [1]: 1.40; EM (%) dosing recommendation [1]: 116%; IM (%) dosing recommendation [1]: 86%; PM (%) dosing recommendation [1]: 74%; UM (%) dosing recommendation [1]: 146%
2 | CN(C)CCC=C1c2ccccc2CCc2ccccc21 [amitryptiline] | 0.17 | 0.34 | 2.00 | 111 | 92 | 73 | 130 | 1 al (effect of 1 non-functional allele) ([2]; CYP2C19): 0.26; 2 al (effect of 2 non-functional alleles) ([2]; CYP2C19): 0.51; UM (%) dosing recommendation ([2]; CYP2C19, head prints UM, percent of usual dose): 109%; 2 al/1 al ([2]; CYP2C19, ratio of the two effects): 2.00; IM (%) dosing recommendation ([2]; CYP2C19 intermediate metabolizers, percent of usual dose): 81%; PM (%) dosing recommendation ([2]; CYP2C19 poor metabolizers, percent of usual dose): 53%
3 | O=C1CCc2ccc(OCCCCN3CCN(c4cccc(Cl)c4Cl)CC3)cc2N1 [aripiprazole] |  |  |  |  |  |  |  | 1 al (effect of 1 non-functional allele) ([1]; CYP2D6, (DREM%-DRIM%)/DREM%): 0.19; 2 al (effect of 2 non-functional alleles) ([1]; CYP2D6, (DREM%-DRPM%)/DREM%): 0.38; 2 al/1 al [1, 3]: 2.05; EM (%) dosing recommendation [1, 4]: 113%; IM (%) dosing recommendation [1, 5]: 92%; PM (%) dosing recommendation [1, 6]: 70%; UM (%) dosing recommendation [1, 7]: 134%
4 | CN(C)CCCC1(c2ccc(F)cc2)OCc2cc(C#N)ccc21 (stereo not drawn) [citalopram] | 0.01 | 0.03 |  | 101 | 100 | 98 | 102 | 1 al (effect of 1 non-functional allele) ([2]; human): 0.22; 2 al (effect of 2 non-functional alleles) ([2]; human): 0.44; 2 al/1 al ([2]; human): 1.96; IM (%) dosing recommendation ([2]; human): 84%; PM (%) dosing recommendation ([2]; human): 61%; UM (%) dosing recommendation ([2]; human): 108%
5 | CN(C)CCCN1c2ccccc2CCc2ccc(Cl)cc21 [clomipramine] |  |  |  |  |  |  |  | 1 al (effect of 1 non-functional allele) ([2]; human): 0.28; 2 al (effect of 2 non-functional alleles) ([2]; human): 0.44; IM (%) dosing recommendation ([2]; human): 79%; UM (%) dosing recommendation ([2]; human): 110%
6 | CNCCCN1c2ccccc2CCc2ccccc21 [desipramine] | 0.34 | 0.66 | 1.98 | 125 | 83 | 42 | 167 | 
7 | O=C(CCCN1CCC(O)(c2ccc(Cl)cc2)CC1)c1ccc(F)cc1 [haloperidol] | 0.09 | 0.29 | 3.10 | 107 | 97 | 76 | 126 | 
8 | COc1ccc2c(c1)N(C[C@H](C)CN(C)C)c1ccccc1S2 [levomepromazine] | 0.00 | 0.00 |  | 100 | 100 | 100 | 100 | 
9 | CN1CCN2c3ncccc3Cc3ccccc3C2C1 (stereo not drawn) [mirtazapine] | −0.02 | −0.03 |  | 99 | 101 | 102 | 97 | 
10 | CCc1nn(CCCN2CCN(c3cccc(Cl)c3)CC2)c(=O)n1CCOc1ccccc1 [nefazodone] | 0.08 | 0.14 | 1.88 | 105 | 97 | 90 | 113 | 
11 | CNCCC=C1c2ccccc2CCc2ccccc21 [nortriptyline] | 0.19 | 0.55 | 2.87 | 119 | 96 | 53 | 152 | 
12 | Fc1ccc([C@@H]2CCNC[C@H]2COc2ccc3c(c2)OCO3)cc1 [paroxetine] |  |  |  |  |  |  |  | 1 al (effect of 1 non-functional allele) ([1]; CYP2D6, (DREM%-DRIM%)/DREM%): 0.21; 2 al (effect of 2 non-functional alleles) ([1]; CYP2D6, (DREM%-DRPM%)/DREM%): 0.42; 2 al/1 al [1, 3]: 2.00; EM (%) dosing recommendation [1, 4]: 114%; IM (%) dosing recommendation [1, 5]: 90%; PM (%) dosing recommendation [1, 6]: 66%; UM (%) dosing recommendation [1, 7]: 138%
13 | CN1CCN(CCCN2c3ccccc3Sc3ccccc32)CC1 [perazine] | 0.17 | 0.22 | 1.26 | 110 | 91 | 86 | 117 | 
14 | OCCN1CCN(CCCN2c3ccccc3Sc3ccc(Cl)cc32)CC1 [perphenazine] |  |  |  |  |  |  |  | 1 al (effect of 1 non-functional allele) ([1]; CYP2D6, (DREM%-DRIM%)/DREM%): 0.38; 2 al (effect of 2 non-functional alleles) ([1]; CYP2D6, (DREM%-DRPM%)/DREM%): 0.76; 2 al/1 al [1, 3]: 2.00; EM (%) dosing recommendation [1, 4]: 129%; IM (%) dosing recommendation [1, 5]: 80%; PM (%) dosing recommendation [1, 6]: 31%; UM (%) dosing recommendation [1, 7]: 178%
15 | O=c1[nH]c2ccccc2n1C1CCN(CCCC(c2ccc(F)cc2)c2ccc(F)cc2)CC1 [pimozide] | 0.03 | 0.07 |  | 102 | 99 | 95 | 105 | 
16 | Cc1nc2n(c(=O)c1CCN1CCC(c3noc4cc(F)ccc34)CC1)CCCC2 [risperidone] | 0.09 |  |  |  |  |  |  | 
17 | O=c1n(CCCN2CCN(c3cccc(Cl)c3)CC2)nc2ccccn12 [trazadone] | 0.15 | 0.31 | 2.00 | 110 | 93 | 76 | 127 | 
18 | COc1ccc(C(CN(C)C)C2(O)CCCCC2)cc1 (stereo not drawn) [venlafaxine] |  |  |  |  |  |  |  | 1 al (effect of 1 non-functional allele) ([1]; CYP2D6, (DREM%-DRIM%)/DREM%): 0.21; 2 al (effect of 2 non-functional alleles) ([1]; CYP2D6, (DREM%-DRPM%)/DREM%): 0.38; 2 al/1 al [1, 3]: 1.78; EM (%) dosing recommendation [1, 4]: 109%; IM (%) dosing recommendation [1, 5]: 86%; PM (%) dosing recommendation [1, 6]: 68%; UM (%) dosing recommendation [1, 7]: 130%
19 | OCCN1CCN(CC/C=C2/c3ccccc3Sc3ccc(Cl)cc32)CC1 [zuclopenthixol] | 0.22 | 0.46 | 2.04 | 116 | 90 | 63 | 142 | 
